# Laboratory results: patent publication US9616025B2, “Compressed tablet containing Δ9-tetrahydrocannabinol, method for its manufacture and use of such tablet in oral treatment” (Echo Pharmaceuticals B.V., priority 2013, dated 2017)
# Where two headings read alike, the source gives them in different places.
# Tests used:
# [1] = Rate of dissolution of THC, Ph. Eur. 2.9.3, 1 wt % SDS in water pH 7; type: physicochemical; conditions: 5 mg THC, pH 7, 36-41° C.
# Method: The rate of dissolution of THC from the compressed tablets described in Example 2 was tested according to European Pharmacopeia (Ph. Eur. 2.9.3) for oral tablets (5 mg THC). The rate of dissolution of pure THC (5 mg) was also measured according to the same method for comparison.
# The dissolution medium consisted of a solution of 1 wt % SDS in water. The pH of the medium had been adjusted to pH 7 with diluted HCl. During the experiments, the temperature of the dissolution media was maintained between 36 and 41° C. under stirring.
# After dropping the tablets in the dissolution medium, samples were taken at various time intervals with a disposable syringe. The samples were filtered immediately over a syringe filter into a HPLC vial and analyzed by HPLC.
# Tablets were prepared as in Example 2, except that the sucrose fatty ester (SML) was substituted by glyceryl monostearate (GMS). Dissolution tests as described in example 3 were performed with these tablets and the tablets described in Example 2.
# [2] = cited from earlier work; for reported tmax-values: previous studies
SMILES,% (w/w) of THC dissolved ([1]; 1 min),% (w/w) of THC dissolved ([1]; 4 min),% (w/w) of THC dissolved ([1]; 8 min),% (w/w) of THC dissolved ([1]; 15 min),Plasma THC maximum concentrations ([2]; after a 20 mg dose of oral THC (Ohlsson 1980)) [µg/L],bioavailability ([2]; inhaled (Ohlsson 1982)),time of peak concentrations post dose ([2]; oral) [h],bioavailability ([2]; orally administered (Ohlsson 1982)),reported tmax-values [2] [h],time to maximal concentration of the active metabolite 11-OHTHC ([2]; published) [min]
"CCCCCc1cc(O)c2c(c1)OC(C)(C)[C@@H]1CCC(C)=C[C@@H]21 [THC, Δ9-tetrahydrocannabinol]",1.0 % (w/w),3.5 % (w/w),5.8 % (w/w),10.2 % (w/w),4.4 to 11.0,up to 27%,1 to 5,approximately 6%,1 to 4,
CCCCCCC(C)(C)c1cc(O)c2c(c1)OC(C)(C)C1CCC(=O)CC21 (centres unmarked) [nabilone],,,,,,,,,2 to 4,
CCCCCc1cc(O)c2c(c1)OC(C)(C)[C@@H]1CCC(C)=C[C@@H]21 [dronabinol],,,,,,,,,,120 to 204
